Measurements: PMC4222822, “Discovery and Characterization of a Potent and Selective Inhibitor of Aedes aegypti Inward Rectifier Potassium Channels” (PLoS ONE, 2014)

Columns and labels:
[1] = target: T1, adenosine A1 receptor (Homo sapiens, UniProt P30542); test: Radioligand displacement assay, adenosine A1 receptor; format: binding, mammalian; conditions: 10 µM VU625
T1 sequence (P30542 1-326): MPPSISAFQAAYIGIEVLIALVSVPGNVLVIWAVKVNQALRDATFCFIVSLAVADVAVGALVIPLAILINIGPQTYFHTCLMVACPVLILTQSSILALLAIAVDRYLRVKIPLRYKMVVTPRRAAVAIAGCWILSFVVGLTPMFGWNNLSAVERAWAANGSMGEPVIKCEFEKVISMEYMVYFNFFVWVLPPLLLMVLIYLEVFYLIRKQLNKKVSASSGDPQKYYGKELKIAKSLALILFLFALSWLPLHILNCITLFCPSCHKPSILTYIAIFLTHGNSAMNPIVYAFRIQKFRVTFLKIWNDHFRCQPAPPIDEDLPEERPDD

[2] = target: T2, Kir2.1 (Homo sapiens, UniProt P63252); test: Tl+ flux selectivity assay, Kir2.1; format: cell-based; conditions: n = 2 independent experiments in triplicate, read-out: Inhibition of Tl+ flux (IC50)
T2 construct: expressed in transfected cells
T2 sequence (P63252 1-427): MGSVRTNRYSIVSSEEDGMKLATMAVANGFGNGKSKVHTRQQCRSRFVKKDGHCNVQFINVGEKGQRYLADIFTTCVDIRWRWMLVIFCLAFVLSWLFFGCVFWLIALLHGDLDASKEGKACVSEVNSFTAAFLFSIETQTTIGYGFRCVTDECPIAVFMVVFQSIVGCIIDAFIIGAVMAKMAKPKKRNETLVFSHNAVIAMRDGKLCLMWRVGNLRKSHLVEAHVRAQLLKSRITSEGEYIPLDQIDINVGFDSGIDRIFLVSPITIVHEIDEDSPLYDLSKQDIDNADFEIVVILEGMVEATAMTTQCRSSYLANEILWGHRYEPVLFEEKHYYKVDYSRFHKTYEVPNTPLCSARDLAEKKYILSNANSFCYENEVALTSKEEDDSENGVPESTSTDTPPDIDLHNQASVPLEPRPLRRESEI
Protocol: [Worded in the source for another target; used here, by the source, with some conditions changed.] Tl^+ flux assays were performed essentially as described previously, [18], [19]. Briefly, stably transfected T-Rex-HEK-293 cells expressing AeKir1 channels were cultured overnight in 384-well plates (20,000 cells/20 µL/well black-walled, clear-bottomed BD PureCoat amine-coated plates (BD, Bedford, MA) with a plating media containing DMEM, 10% dialyzed FBS and 1 µg/mL tetracycline. The next day, the cell culture medium was replaced with a dye-loading solution containing assay buffer (Hanks Balanced Salt Solution with 20 mM HEPES, pH 7.3), 0.01% (w/v) Pluronic F-127 (Life Technologies, Carlsbad, CA), and 1.2 µM of the thallium-sensitive dye Thallos-AM (TEFlabs, Austin, TX). Following 1 hr incubation at room temperature, the dye-loading solution was washed from the plates and replaced with 20 µL/well of assay buffer. […] Tl^+ flux data were analyzed as previously described, [21], [22] using a combination of Excel (Microsoft Corp, Redmond, WA) with XLfit add-in (IDBS, Guildford, Surrey, UK) and OriginPro (OriginLab, Northampton, MA) software. […] The slope of the fluorescence increase beginning 5 s after Tl^+ addition and ending 15 s after Tl^+ addition was calculated.

[3] = tested on: 68 mammalian GPCR's, ion channels, and transporters; test: Radioligand displacement assays, panel of 68 targets; format: binding; conditions: 10 µM, active defined as >50% ligand displacement

CCC(=O)N1c2ccc(S(=O)(=O)Nc3cccc(OC)c3)cc2CC1C (stereo not drawn) [VU625, N-(3-methoxyphenyl)-2-methyl-1-propionylindoline-5-sulfonamide]
radioligand displacement [1]: 76% | IC50 [2]: > 30 µM | activity in radioligand displacement panel [3]: against only three targets
